Test results from patent US20050009023A1, “Glucocorticoid-induced receptor and methods of use” (priority 2001, published 2005).

What was measured:
[1] = test system: GIR mRNA in rat prefrontal cortex; assay: GIR mRNA expression following chronic amphetamine administration (competitive RT-PCR); type: in vivo; conditions: for GIR mRNA levels in prefrontal cortex: mean±SE, n=6
Protocol: (§1) GIR mRNA Expression Following Chronic Amphetamine Administration. Male Sprague-Dawley rats (200-250g, Harlan Sprague-Dawley Laboratories, Indianapolis, Ind.) received subcutaneous injection of either d-amphetamine (AMPH) (2.5 mg/kg) or saline (1 ml/kg) in their home cages once daily for 5 consecutive days (days 1-5). On day 9, four days following completion of this pre-treatment regimen, all animals were transferred to Residential Activity Chambers (RACs) (Segal and Kuczenski, 1987; Richtand et al., 2000), and received saline injection (1 ml/kg) on days 10 and 11 to measure conditioned response to injection. On day 12, seven days following completion of the pre-treatment regimen, all rats received AMPH (2.5 mg/kg) and locomotor activity was determined by photobeam monitoring for 150 minutes following injection. Locomotor activity is expressed as crossovers, defined as the number of times the animal crosses into any of four quadrants subdividing the enclosure. All animals were sacrificed by decapitation 4 hours following injection and total RNA was extracted from prefrontal cortex for determination of GIR mRNA expression. In a separate experiment, rats were injected with either AMPH (2.5 mg/kg) or saline (1 ml/kg) for 5 consecutive days, and sacrificed by decapitation 7 days after the last injection without the final AMPH challenge. Thus, four groups were generated: SAL-AMPH (Saline×5 days and AMPH at challenge), AMPH-AMPH (AMPH×5 days and AMPH at challenge), SAL (Saline×5 days), and AMPH (AMPH×5 days).
Construction of Competitor DNA and Quantitative RT-PCR. To construct the mutant template for competitive PCR, a 20 bp GIR sequence (5′-[…]-3′, 1213-1232 bp in FIG. 1; SEQ ID NO: 18) was incorporated into the upstream primer so that a rat GIR cDNA fragment was amplified by RT-PCR using the chimeric upstream primer (5′-[…]-3′, 1213-1232 bp in FIG. 1; SEQ ID NO:19) and the downstream primer (5′-CGGCCACAGTGGGTTCCAC-3′, 1575-1557 in FIG. 1; SEQ ID NO:13). The 262 bp PCR product was subcloned into pGEM-T vector (Promega, Madison, Wis.). The plasmid DNA was purified (Qiagen, Valencia, Calif.) and insert was verified by DNA sequencing. A fragment containing the mutant rat GIR template (262 bp) was released by EcoRI digestion and purified by agarose gel electrophoresis. DNA concentration was determined spectrophotometrically. Serial dilutions of mutant template were prepared.
The amount of GIR mRNA was quantitated by competitive RT-PCR as described previously (Miao et al., 2000). Briefly, reverse transcription was performed with 2 μg of total RNA using a non-specific random hexamer primer (Promega, Madsion, Wis.). One μl of first strand cDNA was mixed with known amounts of linearized competitor DNA ranging from […], and subjected to co-amplification with GIR-specific primers (5′-[…]-3′, 1213-1232 bp, SEQ ID NO:IS; and 5′-CGGCCACAGTGGGTTCCAC-3′, 1575-1557 bp in FIG. 1, SEQ ID NO:14). PCR was run for 30 cycles of 94° C./1 min, 60° C./2 min 72° C./3 min, and the PCR products were electrophoresed on 1.2% agarose gel. The intensities of bands, corresponding to the products from the GIR mRNA and the competitor with 101-bp size difference, was analyzed densitometrically by BioImage system combined with NIH software (Bio-Rad, Hercules, Calif.). The intensity ratios between the two bands were logarithmically plotted against the known initial input of competitor template, and the amount of GIR mRNA in the total RNA samples was calculated by linear regression. […]

Male Sprague-Dawley rats = assay: Locomotor activity (crossovers) after amphetamine challenge, behavioral sensitization; type: in vivo, rat; conditions: AMPH 2.5 mg/kg challenge, mean±SE
Protocol: as §1

SMILES: C[C@H](N)Cc1ccccc1 [amphetamine, D-Amphetamine]
- GIR mRNA levels in prefrontal cortex, increase of AMPH-AMPH rats compared to SAL-AMPH rats ([1]; AMPH 2.5 mg/kg s.c. x5 days, AMPH challenge 7 days after, sacrificed 4 hours after injection, n=6, P<0.05): 1.38 fold
- GIR mRNA levels in prefrontal cortex, increase of AMPH rats compared to SAL rats ([1]; AMPH 2.5 mg/kg x5 days, no challenge injection, 7 days after last injection, n=6, P<0.05): 1.70 fold
- GIR mRNA levels in prefrontal cortex ([1]; AMPH rats (AMPH x5 days, no challenge), 7 days after amphetamine ceased): 3.65±0.22 fg/100 ng total RNA
- GIR mRNA levels in prefrontal cortex ([1]; AMPH-AMPH rats (AMPH x5 days and AMPH at challenge), 2.5 mg/kg s.c.): 2.97(±0.26 fg/100 ng total RNA
- GIR mRNA levels in prefrontal cortex ([1]; SAL-AMPH rats (saline x5 days and AMPH 2.5 mg/kg at challenge)): 2.27(±0.22 fg/100 ng total RNA
- locomotion at 12-60 min post-injection (focused stereotypy phase) (Male Sprague-Dawley rats; AMPH-AMPH rats, n=6, P<0.0001): 50.20±12.63 crossovers/12-60 min
- locomotion at 60-150 min (post-stereotypy locomotion phase) (Male Sprague-Dawley rats; AMPH-AMPH rats, n=6, P<0.05): 496.67±70.28 crossovers/60-150min
- locomotion at 12-60 min post-injection (focused stereotypy phase) (Male Sprague-Dawley rats; SAL-AMPH rats, n=6): 286.00±27.57 crossovers/12-60 min
- locomotion at 60-150 min (post-stereotypy locomotion phase) (Male Sprague-Dawley rats; SAL-AMPH rats, n=6): 312.25±29.17 crossovers/60-150min
